Results taken from PubChem BioAssay AID1259407 (Chemical Carcinogenesis Research Information System (CCRIS), 2018).
The source made the active and inactive calls. The rule behind the calls is not given here.

Test system: CCRIS mutagenicity, Ames/micronucleus/aberration tests
Assay: CCRIS mutagenicity studies
[1] = Test System: AMES SALMONELLA TYPHIMURIUM, Strain/Indicator: TA98, Metabolic Activation: NONE, Method: STANDARD PLATE
[2] = Test System: AMES SALMONELLA TYPHIMURIUM, Strain/Indicator: TA98, Metabolic Activation: RAT, LIVER, S-9, AROCLOR 1254, Method: STANDARD PLATE
[3] = Test System: AMES SALMONELLA TYPHIMURIUM, Strain/Indicator: TA100, Metabolic Activation: NONE, Method: STANDARD PLATE
[4] = Test System: AMES SALMONELLA TYPHIMURIUM, Strain/Indicator: TA100, Metabolic Activation: RAT, LIVER, S-9, AROCLOR 1254, Method: STANDARD PLATE

O=C(O)c1cc([N+](=O)[O-])cc2cccnc12
mutagenic call [1]: active; positive | mutagenic call [2]: active; positive | mutagenic call [3]: inactive; negative | mutagenic call [4]: active; positive | mutagenic call (Test System: AMES SALMONELLA TYPHIMURIUM, Strain/Indicator: TA1535, Metabolic Activation: NONE, Method: STANDARD PLATE): inactive; negative | mutagenic call (Test System: AMES SALMONELLA TYPHIMURIUM, Strain/Indicator: TA1535, Metabolic Activation: RAT, LIVER, S-9, AROCLOR 1254, Method: STANDARD PLATE): inactive; negative | mutagenic call (Test System: AMES SALMONELLA TYPHIMURIUM, Strain/Indicator: TA1537, Metabolic Activation: NONE, Method: STANDARD PLATE): inactive; negative | mutagenic call (Test System: AMES SALMONELLA TYPHIMURIUM, Strain/Indicator: TA1537, Metabolic Activation: RAT, LIVER, S-9, AROCLOR 1254, Method: STANDARD PLATE): inactive; negative

COC1=CC(=O)c2c(ncc3c2[nH]c2ccccc23)C1=O
mutagenic call (Test System: AMES SALMONELLA TYPHIMURIUM, Strain/Indicator: TA97A, Metabolic Activation: NONE, Method: STANDARD PLATE): active; positive | mutagenic call (Test System: AMES SALMONELLA TYPHIMURIUM, Strain/Indicator: TA97A, Metabolic Activation: RAT LIVER S-9, AROCLOR 1254, Method: STANDARD PLATE): active; positive | mutagenic call [1]: active; positive | mutagenic call (Test System: AMES SALMONELLA TYPHIMURIUM, Strain/Indicator: TA98, Metabolic Activation: RAT LIVER S-9, AROCLOR 1254, Method: STANDARD PLATE): active; positive | mutagenic call [3]: active; positive | mutagenic call (Test System: AMES SALMONELLA TYPHIMURIUM, Strain/Indicator: TA100, Metabolic Activation: RAT LIVER S-9, AROCLOR 1254, Method: STANDARD PLATE): active; positive | mutagenic call (Test System: AMES SALMONELLA TYPHIMURIUM, Strain/Indicator: TA102, Metabolic Activation: NONE, Method: STANDARD PLATE): active; positive | mutagenic call (Test System: AMES SALMONELLA TYPHIMURIUM, Strain/Indicator: TA102, Metabolic Activation: RAT LIVER S-9, AROCLOR 1254, Method: STANDARD PLATE): active; positive

ClCC(Cl)(Cl)Cl
mutagenic call (End Point: IN VITRO CHROMOSOMAL ABERRATIONS, Test System: CHINESE HAMSTER LUNG FIBROBLAST CELLS (CHL/IU), Metabolic Activation: RAT, LIVER, S-9, PHENOBARBITAL AND 5,6-BENZOFLAVONE): active; positive (ploidy) | mutagenic call (End Point: IN VITRO CHROMOSOMAL ABERRATIONS, Test System: CHINESE HAMSTER OVARY CELLS, Metabolic Activation: NONE): inactive; negative; precipitation occurred at all doses | mutagenic call (End Point: IN VITRO CHROMOSOMAL ABERRATIONS, Test System: CHINESE HAMSTER OVARY CELLS, Metabolic Activation: RAT, LIVER, S-9, AROCLOR 1254): inactive; negative; precipitation occurred at all doses | mutagenic call (Test System: AMES SALMONELLA TYPHIMURIUM, Strain/Indicator: TA97, Metabolic Activation: NONE, Method: STANDARD PLATE): inactive; negative | mutagenic call (Test System: AMES SALMONELLA TYPHIMURIUM, Strain/Indicator: TA97, Metabolic Activation: RAT, LIVER, S-9, AROCLOR 1254, Method: STANDARD PLATE): active; positive | mutagenic call [1]: active; positive | mutagenic call [2]: active; positive | mutagenic call [3]: active; positive | mutagenic call [4]: active; positive | mutagenic call (Test System: AMES SALMONELLA TYPHIMURIUM, Strain/Indicator: TA104, Metabolic Activation: NONE, Method: STANDARD PLATE): inactive; negative | mutagenic call (Test System: AMES SALMONELLA TYPHIMURIUM, Strain/Indicator: TA104, Metabolic Activation: RAT, LIVER, S-9, AROCLOR 1254, Method: STANDARD PLATE): active; positive
